Test results reported in US7893046B2, “Therapeutic or prophylactic agent for leukemia” (Toray Industries, Inc., priority 2006, dated 2011).

Tests used:
Format in all cases: in vivo
[1] = test system: leukemia cells (1629B cells) in bone marrow; test: Proliferation of leukemia cells in bone marrow in mouse leukemia model (PCR of neomycin resistance gene)
Description: Neomycin resistance gene, a marker gene for 1629B cells, was used as an index of leukemia cells (1629B cells) in bone marrow and the gene level was determined, thereby detecting the number of leukemia cells in bone marrow.
For the amplification of neomycin resistance gene, primers were prepared and PCR (reaction condition: 32 cycles of 95° C. for 30 sec, 60° C. for 30 sec, and 72° C. for 1 min) was performed using DNA extracted from bone marrow cells as a template. After the reaction, the image of PCR bands was analyzed using Gel-Pro Analyzer (MediaCybernetics).

[2] = test system: mouse leukemia cell line 1629B; test: Mouse leukemia model, survival time and leukocytes in peripheral blood, dosing from Day 21 after transfer of 1629B cells; settings: SCID mice, 100 mg/kg orally every day from Day 21 after transfer; for reduction ratio of increase in the number of leukocytes in peripheral blood: Day 35 after the transfer; for survival time prolonged to (Day after the transfer of leukemia cells): untreated mice died on Day 36
Description: This method was carried out in accordance with the literature “Cancer Cell., 4, 55-65 (2003)”.
Cells of mouse leukemia cell line 1629B were transferred into 8-week-old female SCID mice (CLEA Japan, Inc.) to develop leukemia. The compounds described in Examples 77, 78 and 84 were orally administered, respectively, at a dose of 100 mg/kg every day from Day 21 after the transfer of 1629B cells.

[3] = test system: mouse leukemia cell line 1629B; test: Mouse leukemia model, survival rate and leukocytes in peripheral blood, dosing from the time of 1629B cell transfer; settings: SCID mice, 100 mg/kg orally every day from 1629B transfer
Description: This method was carried out in accordance with the literature “Cancer Cell., 4, 55-65 (2003)”. Cells of mouse leukemia cell line 1629B were transferred into 8- or 9-week-old female SCID mice (CLEA Japan, Inc.) to develop leukemia. The compounds described in Examples 80, 81 and 83 were orally administered, respectively, at a dose of 100 mg/kg every day from the time when 1629B cells were transferred.

[4] = leukemia mice of Example 89 (100 mg/kg orally from Day 21 after transfer)
[5] = leukemia mice of Example 88 (100 mg/kg orally from the time of transfer)
[6] = Day 43 after the transfer of leukemia cells

Row | SMILES | reduction ratio of increase in the number of leukemia cells in bone marrow [1, 4] | reduction ratio of increase in the number of leukocytes in peripheral blood [2] | survival time prolonged to (Day after the transfer of leukemia cells) [2] | reduction ratio of increase in the number of leukemia cells in bone marrow [1, 5] | reduction ratio of increase in the number of leukocytes in peripheral blood ([3]; Day 43 after the transfer) | survival rate [3, 6] | reduction ratio of increase in the number of leukocytes in peripheral blood ([3]; Day 51 after the transfer) | survival rate ([3]; Day 51 after the transfer of leukemia cells)
1 | COC1(c2ccc(/C=C/C[C@H](NC(=O)c3c(Cl)cccc3Cl)C(=O)O)cc2)CCOCC1 [Example 77, (S,E)-2-(2,6-Dichlorobenzamido)-5-[4-(4-methoxytetrahydropyran-4-yl)-phenyl]pent-4-enoic Acid] | 49.3% | 41.2% | 43 days | – | – | – | – | –
2 | COC1(c2ccc(/C=C/C[C@H](NC(=O)c3c(Cl)cccc3Cl)C(=O)[O-])cc2)CCOCC1.[Na+] [Example 78, (S,E)-2-(2,6-Dichlorobenzamido)-5-[4-(4-methoxytetrahydropyran-4-yl)-phenyl]pent-4-enoic Acid Sodium Salt] | 41.7% | 41.0% | 43 days | – | – | – | – | –
3 | CN(c1ccc(/C=C/C[C@H](NC(=O)c2c(Cl)cccc2Cl)C(=O)O)cc1)c1ncccn1 [Example 80, (S,E)-2-(2,6-Dichlorobenzamido)-5-[4-(methyl-pyrimidin-2-ylamino)phenyl]pent-4-enoic Acid] | – | – | – | 45.9% | 61.6% | 75.0% | – | –
4 | CN(c1ccc(/C=C/C[C@H](NC(=O)c2c(Cl)cccc2Cl)C(=O)[O-])cc1)c1ncccn1.[Na+] [Example 81, (S,E)-2-(2,6-Dichlorobenzamido)-5-[4-(methyl-pyrimidin-2-ylamino)phenyl]pent-4-enoic Acid Sodium Salt] | – | – | – | 50.8% | – | – | 60.8% | 62.5%
5 | CC(C)N(c1ccc(/C=C/C[C@H](NC(=O)c2c(Cl)cccc2Cl)C(=O)O)cc1)c1ncccn1 [Example 83, (S,E)-2-(2,6-Dichlorobenzamido)-5-[4-(isopropyl-pyrimidin-2-ylamino)phenyl]pent-4-enoic Acid] | – | – | – | 46.1% | 53.1% | 75.0% | – | –
6 | CC(C)N(c1ccc(/C=C/C[C@H](NC(=O)c2c(Cl)cccc2Cl)C(=O)[O-])cc1)c1ncccn1.[Na+] [Example 84, (S,E)-2-(2,6-Dichlorobenzamido)-5-[4-(isopropyl-pyrimidin-2-ylamino)phenyl]pent-4-enoic Acid Sodium Salt] | 45.6% | 49.8% | 43 days | – | – | – | – | –
